Data set [1] relates to Daphnia magna. The following applies: chronic/long-term; duration: 21 days.
In data set [2] the test system is Bibionidae. To be noted: chronic/long-term; duration: 28 days.
Data set [3] concerns Oncorhynchus mykiss. To be noted: acute; duration: 96 hours; mortality.
In data set [4] the test system is Apis mellifera. The following applies: acute, mortality.
The test system of data set [5] is Rattus norvegicus.
Data set [6] concerns Anas platyrhynchos. To be noted: reproductive.
Data set [7] relates to Tagia sp. To be noted: chronic/long-term; duration: 56 days; reproduction.
In data set [8] the test system is Folsomia candida. To be noted: chronic/long-term; duration: 28 days; reproduction.
Data set [9] relates to Colinus virginianus. The following applies: acute; oral; mortality.
The subject of data set [10] is Aphidius rhopalosiphi. Briefly: LR50; higher = less toxic. To be noted: acute; mortality.

Converted amounts (≈) assume the structure as drawn. Some results are limits rather than exact numbers.

In general, LC50 refers to the concentration lethal to half of the exposed cells or organisms. For orientation: NOAEL means the highest tested level that showed no adverse finding. With `CCOC(=O)Nc1cccc(OC(=O)Nc2ccccc2)c1` [Desmedipham], the NOEC in [1] came to 0.02 mg/L; in data set [2], 0.14 mg/L; in data set [7] it was 64 mg/kg; in data set [8] it was 158 mg/kg. Further, the LC50 in [3] is 1.41 mg/L (≈ 4.7 µM). The LD50 is above 100 µg/piece in data set [4] (dermal); above 101 µg/piece in data set [4] (oral, unspecified); above 5000 mg/kg-day in data set [5] (acute, oral, mortality); above 2000 mg/kg-day in [9]. Moreover, the NOAEL in data set [5] (chronic, duration: 2 years, hematological) was 3.2 mg/kg-day; in [5] (reproduction developmental, M, reproduction) it was 4 mg/kg-day; in [5] (subchronic, duration: 90 days, oral, hematological), 5.2 mg/kg-day; in [6], 11 mg/kg-day. The LR50 in [10] came to 63.8 g/ha.

For the origin of these results see EPA's ToxValDB 9.5 (doi:10.2903/j.efsa.2018.5150).
